Measurements taken from patent publication US11000033B2, “Ketone or oxime compound, and herbicide” (NISSAN CHEMICAL CORPORATION, priority 2014, dated 2021).

Legend:
Format in all cases: in vivo
beet [1] = experiment: Test Example 4: effect on crop by soil treatment (symbol f); settings: for f: beet, effect grade on crop: 320 g/ha
Procedure, shortened: (§1)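 Seeds were sown in spots on sterilized diluvial soil in a plastic box and covered with about 1.5 cm of soil. Plants were then grown in a greenhouse at 25° C. to 30° C.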

wheat = experiment: Test Example 4: effect on crop by soil treatment (symbol e); settings: for e: wheat, effect grade on crop: 320 g/ha
Procedure, shortened: as §1

Apera spica-venti = experiment: Test Example 5: herbicidal effect by foliage application, plastic box (symbol L); settings: 320 g/ha, 3 weeks after application
Procedure, shortened: (§2)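 Sowing in sterilized diluvial soil, 14 days' greenhouse growth at 25° C. to 30° C., then uniform small-sprayer foliar application of aqueous emulsion dilution; plants scored three weeks afterwards.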

beet [2] = experiment: Test Example 5: effect on crop by foliage application, plastic box (symbol f); settings: 320 g/ha, 3 weeks after application
Procedure, shortened: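 Box culture: sterile diluvial soil, seeds spot-sown, ~1.5 cm cover, raised under glass at 25–30° C.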

corn = experiment: Test Example 4: effect on crop by soil treatment (symbol c); settings: for c: corn, effect grade on crop: 320 g/ha
Procedure, shortened: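 The test used sterilized diluvial soil. Seed was set down in spots and overlaid with about 1.5 cm of soil before growth in a greenhouse kept at 25° C. to 30° C.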

Lolium multiflorum Lam. = experiment: Test Example 4: herbicidal effect by soil treatment (symbol K); settings: for K: Lolium multiflorum Lam., herbicidal effect grade: 320 g/ha
Procedure, shortened: (§3)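 Seeds were sown in sterilized diluvial soil, covered with about 1.5 cm of soil, and the soil surface was sprayed with a water-diluted emulsion of the compound at a predetermined rate. Plants grew in a greenhouse at 25° C. to 30° C.; effects were scored visually 3 weeks after application.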

Alopecurus myosuroides = experiment: Test Example 5: herbicidal effect by foliage application, plastic box (symbol J); settings: 320 g/ha, 3 weeks after application
Procedure, shortened: as §2

Abutilon theophrasti = experiment: Test Example 4: herbicidal effect by soil treatment (symbol M); settings: for M: Abutilon theophrasti, herbicidal effect grade: 320 g/ha
Procedure, shortened: as §3

Digitaria ciliaris [3] = experiment: Test Example 4: herbicidal effect by soil treatment (symbol F); settings: for F: Digitaria ciliaris, herbicidal effect grade: 320 g/ha
Procedure, shortened: as §3

Veronica persica = experiment: Test Example 5: herbicidal effect by foliage application, plastic box (symbol R); settings: 320 g/ha, 3 weeks after application
Procedure, shortened: as §2

Galium spurium = experiment: Test Example 5: herbicidal effect by foliage application, plastic box (symbol Q); settings: 320 g/ha, 3 weeks after application
Procedure, shortened: as §2

[4] = system: directly sowed rice plant; experiment: Test Example 3: effect on crop by foliage application, Wagner pot (symbol b); settings: application herbicide amount 320 g/ha
Procedure, shortened: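 Steps: fill a 1/10000-are Wagner pot with alluvial soil; add water and mix to submerge at 0.1–0.5 cm depth; sow rice plus Echinochloa crus-galli var. crus-galli, Leptochloa chinensis and Cyperus difformis; grow in a 25–30 °C greenhouse.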

Setaria viridis = experiment: Test Example 5: herbicidal effect by foliage application, plastic box (symbol G); settings: 320 g/ha, 3 weeks after application
Procedure, shortened: as §2

[5] = system: Echinochloa crus-galli var. crus-galli; experiment: Test Example 4: herbicidal effect by soil treatment (symbol H); settings: for H: Echinochloa crus-galli var. crus-galli, herbicidal effect grade: 320 g/ha
Procedure, shortened: as §3

Digitaria ciliaris [6] = experiment: Test Example 5: herbicidal effect by foliage application, plastic box (symbol F); settings: 320 g/ha, 3 weeks after application
Procedure, shortened: as §2

[7] = system: Echinochloa oryzacola Vasing.; experiment: Test Example 2: herbicidal activity, application during weed generation in submerged conditions (symbol A); settings: Table 23; application herbicide amount 320 g/ha; grade 0-5 by criteria of Test Example 1
Procedure, shortened: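 Steps: fill pots with alluvial soil; add water to 4 cm depth; co-sow the three weeds; grow at 25° C. to 30° C. under glass; at 1–2 leaves, dose the floodwater with diluted emulsion; rate damage visually after 3 weeks.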

Cyperus difformis = experiment: Test Example 3: herbicidal effect by foliage application, Wagner pot (symbol E); settings: application herbicide amount 320 g/ha
Procedure, shortened: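 Post-emergence, paddy-type test: seedlings 14 d old in shallow-flooded (0.1–0.5 cm) alluvial soil, 25–30 °C greenhouse. Emulsion diluted to target rate, sprayed on leaves. Read-out: visual effect on each species at 3 weeks, per set criteria.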

rice = experiment: Test Example 4: effect on crop by soil treatment (symbol b); settings: for b: directly sowed rice plant, effect grade on crop: 320 g/ha
Procedure, shortened: as §1

[8] = application herbicide amount 320 g/ha

| Structure (SMILES) | f: beet, effect grade on crop (beet [1]) | e: wheat, effect grade on crop (wheat) | L: Apera spica-venti, herbicidal effect (criteria 0-5) (Apera spica-venti) | f: beet, effect on crop (criteria 0-5) (beet [2]) | c: corn, effect grade on crop (corn) | K: Lolium multiflorum Lam., herbicidal effect grade (Lolium multiflorum Lam.) | J: Alopecurus myosuroides, herbicidal effect (criteria 0-5) (Alopecurus myosuroides) | M: Abutilon theophrasti, herbicidal effect grade (Abutilon theophrasti) | F: Digitaria ciliaris, herbicidal effect grade (Digitaria ciliaris [3]) | R: Veronica persica, herbicidal effect (criteria 0-5) (Veronica persica) | Q: Galium spurium, herbicidal effect (criteria 0-5) (Galium spurium) | effect on crop b (directly sowed rice plant), grade 0-5 [4] | G: Setaria viridis, herbicidal effect (criteria 0-5) (Setaria viridis) | H: Echinochloa crus-galli var. crus-galli, herbicidal effect grade [5] | F: Digitaria ciliaris, herbicidal effect (criteria 0-5) (Digitaria ciliaris [6]) | Herbicidal effect grade, A: Echinochloa oryzacola Vasing. [7] | herbicidal effect on E, grade 0-5 (Cyperus difformis) | b: directly sowed rice plant, effect grade on crop (rice) | other results |
| --- | --- | --- | --- | --- | --- | --- | --- | --- | --- | --- | --- | --- | --- | --- | --- | --- | --- | --- | --- |
| CCCC=CC(=O)OC1=C(c2c(C)cc(C)cc2C)C(=O)C(CC(C)=NOC)C1 (stereo not drawn) [1-090] | 0 (Herbicidal ratio of 5% or lower (almost no effect)) | 4 (Herbicidal ratio of 70% or higher and lower than 90%) | 5 (Herbicidal ratio of 90% or more (almost completely withered)) | 0 (Herbicidal ratio of 5% or lower (almost no effect)) | 3 (Herbicidal ratio of 40% or higher and lower than 70%) | 5 (Herbicidal ratio of 90% or more (almost completely withered)) | 5 (Herbicidal ratio of 90% or more (almost completely withered)) | 4 (Herbicidal ratio of 70% or higher and lower than 90%) | 5 (Herbicidal ratio of 90% or more (almost completely withered)) | 3 (Herbicidal ratio of 40% or higher and lower than 70%) | 0 (Herbicidal ratio of 5% or lower (almost no effect)) | 5 (Herbicidal ratio of 90% or more (almost completely withered)) | 5 (Herbicidal ratio of 90% or more (almost completely withered)) | 5 (Herbicidal ratio of 90% or more (almost completely withered)) | 5 (Herbicidal ratio of 90% or more (almost completely withered)) | 5 (Herbicidal ratio of 90% or more (almost completely withered)) | 5 (Herbicidal ratio of 90% or more (almost completely withered)) | 5 (Herbicidal ratio of 90% or more (almost completely withered)) | – |
| CON=C(CC1CC(O)=C(c2c(C)cc(C)cc2C)C1=O)C1CCCCC1 (stereo not drawn) [1-085] | 0 (Herbicidal ratio of 5% or lower (almost no effect)) | 0 (Herbicidal ratio of 5% or lower (almost no effect)) | 3 (Herbicidal ratio of 40% or higher and lower than 70%) | 0 (Herbicidal ratio of 5% or lower (almost no effect)) | 0 (Herbicidal ratio of 5% or lower (almost no effect)) | 3 (Herbicidal ratio of 40% or higher and lower than 70%) | 3 (Herbicidal ratio of 40% or higher and lower than 70%) | 0 (Herbicidal ratio of 5% or lower (almost no effect)) | 0 (Herbicidal ratio of 5% or lower (almost no effect)) | 0 (Herbicidal ratio of 5% or lower (almost no effect)) | 0 (Herbicidal ratio of 5% or lower (almost no effect)) | 5 (Herbicidal ratio of 90% or more (almost completely withered)) | 5 (Herbicidal ratio of 90% or more (almost completely withered)) | 1 (Herbicidal ratio of 5% or higher and lower than 20%) | 3 (Herbicidal ratio of 40% or higher and lower than 70%) | 3 (Herbicidal ratio of 40% or higher and lower than 70%) | 0 (Herbicidal ratio of 5% or lower (almost no effect)) | 5 (Herbicidal ratio of 90% or more (almost completely withered)) | – |
| CON=C(C)CC1CC(OC(=O)COc2ccccc2)=C(c2c(C)cc(C)cc2C)C1=O (stereo not drawn) [1-043] | – | – | – | – | – | – | – | – | – | – | – | 5 (Herbicidal ratio of 90% or more (almost completely withered)) | – | – | – | 5 (Herbicidal ratio of 90% or more (almost completely withered)) | 5 (Herbicidal ratio of 90% or more (almost completely withered)) | – | f (beet) effect on crop grade (beet [1]; [8]): 4 (Herbicidal ratio of 70% or higher and lower than 90%); e (wheat) effect on crop grade (wheat; [8]): 4 (Herbicidal ratio of 70% or higher and lower than 90%); L: Apera spica-venti, herbicidal effect grade (Apera spica-venti): 5 (Herbicidal ratio of 90% or more (almost completely withered)); f: beet, effect on crop grade (beet [2]): 3 (Herbicidal ratio of 40% or higher and lower than 70%); c (corn) effect on crop grade (corn; [8]): 4 (Herbicidal ratio of 70% or higher and lower than 90%); K (Lolium multiflorum Lam.) herbicidal effect grade (Lolium multiflorum Lam.; [8]): 5 (Herbicidal ratio of 90% or more (almost completely withered)); J: Alopecurus myosuroides, herbicidal effect grade (Alopecurus myosuroides): 5 (Herbicidal ratio of 90% or more (almost completely withered)); M (Abutilon theophrasti) herbicidal effect grade (Abutilon theophrasti; [8]): 4 (Herbicidal ratio of 70% or higher and lower than 90%); F (Digitaria ciliaris) herbicidal effect grade (Digitaria ciliaris [3]; [8]): 5 (Herbicidal ratio of 90% or more (almost completely withered)); R: Veronica persica, herbicidal effect grade (Veronica persica): 2 (Herbicidal ratio of 20% or higher and lower than 40%); Q: Galium spurium, herbicidal effect grade (Galium spurium): 3 (Herbicidal ratio of 40% or higher and lower than 70%); G: Setaria viridis, herbicidal effect grade (Setaria viridis): 5 (Herbicidal ratio of 90% or more (almost completely withered)); H (Echinochloa crus-galli var. crus-galli) herbicidal effect grade [5, 8]: 5 (Herbicidal ratio of 90% or more (almost completely withered)); F: Digitaria ciliaris, herbicidal effect grade (Digitaria ciliaris [6]): 5 (Herbicidal ratio of 90% or more (almost completely withered)); b (directly sowed rice plant) effect on crop grade (rice; [8]): 5 (Herbicidal ratio of 90% or more (almost completely withered)) |
